# Reference: ChEMBL document CHEMBL1144136, “Anti-HIV-1 protease triterpenoid saponins from the seeds of Aesculus chinensis” (J Nat Prod, 1999)
# Target: Protease (Human immunodeficiency virus 1) (UniProt Q9YQ12)
# Experiment: Inhibition of HIV1 protease at 100 uM
# Sequence of Protease (Human immunodeficiency virus 1) (Q9YQ12 as listed by the source): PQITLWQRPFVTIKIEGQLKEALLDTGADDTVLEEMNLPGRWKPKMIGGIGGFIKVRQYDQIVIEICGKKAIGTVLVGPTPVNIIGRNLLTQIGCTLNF
row,inhibition [%],SMILES
1,14.7,C/C=C(/C)C(=O)O[C@H]1[C@H](O)[C@]2(COC(C)=O)[C@H](O)C[C@]3(C)C(=CC[C@@H]4[C@@]5(C)CC[C@H](O[C@@H]6O[C@H](C(=O)O)[C@@H](O[C@@H]7O[C@H](CO)[C@@H](O)[C@H](O)[C@H]7O)[C@H](O)[C@H]6O[C@@H]6O[C@H](CO)[C@@H](O)[C@H](O)[C@H]6O)[C@](C)(CO)[C@@H]5CC[C@]43C)[C@@H]2CC1(C)C
2,15.9,C/C=C(\C)C(=O)OC[C@@]12[C@H](O)C[C@]3(C)C(=CC[C@@H]4[C@@]5(C)CC[C@H](O[C@@H]6O[C@H](C(=O)O)[C@@H](O[C@@H]7O[C@H](CO)[C@@H](O)[C@H](O)[C@H]7O)[C@H](O)[C@H]6O[C@@H]6O[C@H](CO)[C@@H](O)[C@H](O)[C@H]6O)[C@](C)(CO)[C@@H]5CC[C@]43C)[C@@H]1CC(C)(C)[C@@H](O)[C@@H]2O
3,12.5,C/C=C(/C)C(=O)OC[C@@]12[C@H](O)C[C@]3(C)C(=CC[C@@H]4[C@@]5(C)CC[C@H](O[C@@H]6O[C@H](C(=O)O)[C@@H](O[C@@H]7O[C@H](CO)[C@@H](O)[C@H](O)[C@H]7O)[C@H](O)[C@H]6O[C@@H]6O[C@H](CO)[C@@H](O)[C@H](O)[C@H]6O)[C@](C)(CO)[C@@H]5CC[C@]43C)[C@@H]1CC(C)(C)[C@@H](O)[C@@H]2O
4,35.2,C/C=C(\C)C(=O)O[C@H]1[C@H](O)C(C)(C)C[C@H]2C3=CC[C@@H]4[C@@]5(C)CC[C@H](O[C@@H]6O[C@H](C(=O)O)[C@@H](O[C@@H]7O[C@H](CO)[C@@H](O)[C@H](O)[C@H]7O)[C@H](O)[C@H]6O[C@@H]6O[C@H](CO)[C@@H](O)[C@H](O)[C@H]6O)[C@](C)(CO)[C@@H]5CC[C@@]4(C)[C@]3(C)C[C@@H](O)[C@]21COC(C)=O
5,39,C/C=C(\C)C(=O)O[C@H]1[C@H](O)[C@]2(COC(C)=O)[C@H](O)C[C@]3(C)C(=CC[C@@H]4[C@@]5(C)CC[C@H](O[C@@H]6O[C@H](C(=O)O)[C@@H](O[C@@H]7O[C@H](CO)[C@@H](O)[C@H](O)[C@H]7O)[C@H](O)[C@H]6O[C@@H]6O[C@H](CO)[C@@H](O)[C@H](O)[C@H]6O)[C@](C)(CO)[C@@H]5CC[C@]43C)[C@@H]2CC1(C)C
6,34,C/C=C(/C)C(=O)O[C@H]1[C@H](O)C(C)(C)C[C@H]2C3=CC[C@@H]4[C@@]5(C)CC[C@H](O[C@@H]6O[C@H](C(=O)O)[C@@H](O[C@@H]7O[C@H](CO)[C@@H](O)[C@H](O)[C@H]7O)[C@H](O)[C@H]6O[C@@H]6O[C@H](CO)[C@@H](O)[C@H](O)[C@H]6O)[C@](C)(CO)[C@@H]5CC[C@@]4(C)[C@]3(C)C[C@@H](O)[C@]21COC(C)=O

# Target: Protease (Human immunodeficiency virus 1, UniProt Q9YQ12)
# Sequence (Q9YQ12 whole entry): as the sequence (Q9YQ12 as listed by the source) above
# Experiment: Inhibition of HIV1 protease
row,SMILES,IC50 [µM]
1,C/C=C(\C)C(=O)O[C@H]1[C@H](OC(C)=O)[C@]2(CO)[C@H](O)C[C@]3(C)C(=CC[C@@H]4[C@@]5(C)CC[C@H](O[C@@H]6O[C@H](C(=O)O)[C@@H](O[C@@H]7O[C@H](CO)[C@@H](O)[C@H](O)[C@H]7O)[C@H](O)[C@H]6O[C@@H]6O[C@H](CO)[C@@H](O)[C@H](O)[C@H]6O)[C@](C)(CO)[C@@H]5CC[C@]43C)[C@@H]2CC1(C)C [ESCIN IA],35
2,C/C=C(/C)C(=O)O[C@H]1[C@H](OC(C)=O)[C@]2(CO)[C@H](O)C[C@]3(C)C(=CC[C@@H]4[C@@]5(C)CC[C@H](O[C@@H]6O[C@H](C(=O)O)[C@@H](O[C@@H]7O[C@H](CO)[C@@H](O)[C@H](O)[C@H]7O)[C@H](O)[C@H]6O[C@@H]6O[C@H](CO)[C@@H](O)[C@H](O)[C@H]6O)[C@](C)(CO)[C@@H]5CC[C@]43C)[C@@H]2CC1(C)C [ESCIN IB],50
